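At the GI50, growth is halved. Definition used: TGI = concentration required for complete inhibition of growth.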
Key:
Assay in all cases: DTP human tumour cell line panel, 384-well format
786-0 renal = tested on: 786-0 renal
A498 renal = tested on: A498 renal
A549 NSCLC = tested on: A549 NSCLC
ACHN renal = tested on: ACHN renal
BT-549 breast = tested on: BT-549 breast
CAKI-1 renal = tested on: CAKI-1 renal
CCRF-CEM leukemia = tested on: CCRF-CEM leukemia
COLO 205 colon = tested on: COLO 205 colon
DU-145 prostate = tested on: DU-145 prostate
EKVX NSCLC = tested on: EKVX NSCLC
HCC-2998 colon = tested on: HCC-2998 colon
HCT-116 colon = tested on: HCT-116 colon
HCT-15 colon = tested on: HCT-15 colon
HL-60(TB) leukemia = tested on: HL-60(TB) leukemia
HOP-62 NSCLC = tested on: HOP-62 NSCLC
HOP-92 NSCLC = tested on: HOP-92 NSCLC
HS 578T breast = tested on: HS 578T breast
HT29 colon = tested on: HT29 colon
K-562 leukemia = tested on: K-562 leukemia
KM12 colon = tested on: KM12 colon
LOX IMVI melanoma = tested on: LOX IMVI melanoma
M14 melanoma = tested on: M14 melanoma
MALME-3M melanoma = tested on: MALME-3M melanoma
MDA-MB-231 breast = tested on: MDA-MB-231 breast
MDA-MB-435 melanoma = tested on: MDA-MB-435 melanoma
MOLT-4 leukemia = tested on: MOLT-4 leukemia
NCI-H226 lung = tested on: NCI-H226 lung
NCI-H23 lung = tested on: NCI-H23 lung

## C[C@@H](NC(=O)/C(C#N)=C/c1ccc([N+](=O)[O-])cc1)c1ccccc1
786-0 renal
  GI50: 1.72 µM
  TGI: 3.21 µM
A498 renal
  GI50: 1.91 µM
  TGI: 3.54 µM
A549 NSCLC
  GI50: 3.04 µM
  TGI: 8.55 µM
ACHN renal
  GI50: 1.79 µM
  TGI: 3.25 µM
BT-549 breast
  GI50: 1.85 µM
  TGI: 3.42 µM
CAKI-1 renal
  GI50: 1.72 µM
  TGI: 3.32 µM
CCRF-CEM leukemia
  GI50: 1.64 µM
  TGI: 3.02 µM
COLO 205 colon
  GI50: 1.71 µM
  TGI: 3.11 µM
DU-145 prostate
  GI50: 3.2 µM
  TGI: 9.86 µM
EKVX NSCLC
  GI50: 1.91 µM
  TGI: 3.55 µM
HCC-2998 colon
  GI50: 1.14 µM
  TGI: 2.42 µM
HCT-116 colon
  GI50: 2.59 µM
  TGI: 5.95 µM
HCT-15 colon
  GI50: 1.72 µM
  TGI: 3.24 µM
HL-60(TB) leukemia
  GI50: 1.78 µM
  TGI: 3.18 µM
HOP-62 NSCLC
  GI50: 2.4 µM
  TGI: 5.77 µM
HOP-92 NSCLC
  GI50: 3.22 µM
  TGI: 12.1 µM
HS 578T breast
  GI50: 1.85 µM
  TGI: 3.41 µM
HT29 colon
  GI50: 1.82 µM
  TGI: 3.25 µM
K-562 leukemia
  GI50: 1.85 µM
  TGI: 4.04 µM
KM12 colon
  GI50: 1.9 µM
  TGI: 3.79 µM
LOX IMVI melanoma
  GI50: 1.93 µM
  TGI: 3.49 µM
M14 melanoma
  GI50: 2.37 µM
  TGI: 5.7 µM
MALME-3M melanoma
  GI50: 2.29 µM
  TGI: 4.6 µM
MDA-MB-231 breast
  GI50: 3.03 µM
  TGI: 7.47 µM
MDA-MB-435 melanoma
  GI50: 3.26 µM
  TGI: 10.4 µM
MOLT-4 leukemia
  GI50: 1.5 µM
  TGI: 2.85 µM
NCI-H226 lung
  GI50: 2.04 µM
  TGI: 4.28 µM
NCI-H23 lung
  GI50: 1.83 µM

From PubChem BioAssay (NCI)
